Here are results for two compounds from patent publication US20210267996A1, “Compounds for inhibition of inflammation” (Children`s Medical Center Corporation, priority 2018, published 2021).

The IC50 is the midpoint of a concentration-inhibition curve.

One assay concerns the target T1, Human GSDMD (Homo sapiens, UniProt P57764).
T1 construct: His6-MBP (N, cleaved yes); made in house; host or cells: E. coli BL21 (DE3) for GSDMD; Sf9 for caspase-11
T1 sequence (P57764 1-484): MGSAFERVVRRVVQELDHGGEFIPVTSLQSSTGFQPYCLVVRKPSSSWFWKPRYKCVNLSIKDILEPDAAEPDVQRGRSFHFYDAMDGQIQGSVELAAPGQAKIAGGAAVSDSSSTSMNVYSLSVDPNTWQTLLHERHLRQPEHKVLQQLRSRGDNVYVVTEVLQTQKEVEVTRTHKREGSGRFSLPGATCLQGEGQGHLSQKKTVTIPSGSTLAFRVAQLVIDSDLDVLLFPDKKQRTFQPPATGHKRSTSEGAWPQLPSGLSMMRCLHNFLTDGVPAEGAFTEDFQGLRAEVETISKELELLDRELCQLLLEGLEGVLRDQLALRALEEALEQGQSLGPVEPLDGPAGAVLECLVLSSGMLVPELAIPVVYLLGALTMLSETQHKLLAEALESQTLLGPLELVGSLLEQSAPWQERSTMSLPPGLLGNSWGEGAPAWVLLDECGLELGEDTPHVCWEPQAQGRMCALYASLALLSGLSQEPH
Nature of the assay: Liposome leakage assay (Tb3+/DPA), GSDMD plus caspase-11. The conditions noted are these: for IC50: WT GSDMD, caspase-11-triggered, read-out: IC50 of liposome leakage. In kind it is biochemical. Here is the method: The lipid mixture was suspended in 1 mL Buffer A (20 mM HEPES, 150 mM NaCl, 50 mM sodium citrate, and 15 mM TbCl3) for 3 min. The suspension was pushed through 100 nm Whatman® Nuclepore™ Track-Etched Membrane 30 times to obtain homogeneous liposomes. The filtered suspension was purified by size exclusion column (Superose 6, 10/300 GL) in Buffer B (20 mM HEPES, 150 mM NaCl) to remove TbCl3 outside liposomes. […] The liposomes are diluted to 50 μM with Buffer C (20 mM HEPES, 150 mM NaCl and 50 μM DPA) for use in high-throughput screening.

The next assay has as its system caspase-1. Nature of the assay: Caspase-1 activity assay in cells (FAM-YVAD-FMK). Particulars: 30 μM, 30 min after nigericin. The assay is classed as cell-based, human. Here is the method:
Caspase-1 activity assay in cells: to measure caspase-1 activation, THP-1 cells were seeded into 96-well plates and differentiated with PMA. After the indicated treatments, cells were incubated with a fluorescent active caspase-1 substrate FAM-YVAD-FMK (Immunochemistry Technologies). Samples were read on a BioTek Synergy 2 plate reader.
Cell death was determined by CytoTox96 assay. […] Cell death was determined by CytoTox96 assay. […] Shown are immunoblots of whole cell lysates harvested 0.5 hr later. […] Representative images of ASC specks (arrowheads) and mean±s.d. percent of cells with ASC specks analyzed 20 min later (FIG. 47). Whole cell lysates (WCL) and culture supernatants (Sup) were harvested 30 min after adding nigericin and immunoblotted with the indicated antibodies (FIG. 50). Caspase-1 activity was assayed 30 min after adding nigericin using a cell-permeable fluorescence dye FAM-YVAD-FMK (FIG. 52). […] Representative images of ASC specks (arrowheads) and mean±s.d. percent of cells with ASC specks analyzed 20 min later (FIGS. 48 and 49). Whole cell lysates (WCL) and culture supernatants (Sup), harvested 30 min after adding nigericin, were analyzed by immunoblot (FIG. 51). […] The Figures show representative confocal microscopy images and quantification of proportion of cells with GSDMD membrane staining and pyroptotic bubbles. Arrows indicate GSDMD staining of pyroptotic bubbles. […] FIGS. 57 and 58, dose response curve of the effect of Bay 11-7082 on caspase-1 (FIG. 57) and caspase-11 (FIG. 58) activity against a fluorescent peptide substrate. […] (FIG. 60). FIGS. 61 and 62 show dose response curve of the effect of Bay 11-7082 on liposome leakage induced by 0.3 μM human GSDMD-3C (FIG. 61) or mouse GSDMA3-3C (FIG. 62) plus 0.15 μM 3C protease. […] 2-fold dilutions of Bay 11-7082 from 5-40 μM were used. Graphs show the mean±s.d; data are representative of three independent experiments. *P<0.05, **P<0.01.

Take `CCN(CC)C(=S)SSC(=S)N(CC)CC` [C-23, Tetraethylthiuram disulfide]: at Human GSDMD, the IC50 was about 0.3 µM. Moreover, the “incubation time to inhibition of liposome leakage” value on Human GSDMD (time course, preincubation 2-90 min) is on record as at most 2 min. Also, the “effect of copper gluconate (Cu2+) on inhibition of liposome leakage” value on Human GSDMD (with Cu2+) is “only weakly increased”. Further, the “caspase-1 activity in intact cells” value with caspase-1 is recorded as “only partially reduced”.
Consider `Cc1ccc(S(=O)(=O)/C=C/C#N)cc1` [Bay 11-7082], for which the “times less active than disulfiram at inhibiting liposome leakage” value at Human GSDMD (GSDMD plus caspase-11) is reported as 23 fold. In addition, at Human GSDMD, the IC50 worked out at 6.81 ± 0.1 µM. Moreover, the “caspase-1 activity in intact cells” value in the assay with caspase-1 is recorded as “only partially reduced”.
